Data as given in US8409649B2, “Off-note blocking sensory organic compounds” (Givaudan S.A., priority 2007, dated 2013).
Where two headings read alike, the source gives them in different places.

Experiments:
[1] = biological target: T1, human TAS2R44 bitter taste receptor (Homo sapiens, UniProt P59538, L162M); assay: TAS2R44 bitter taste receptor assay for IC50 determination (Fluo-4 calcium assay); assay type: cell-based
T1 construct: The TAS2R44 construct contains RSS tag, TAS2R44, and the HSV tag which are fused in frame; expressed in transfected cells; host or cells: HEK293T/Galpha16-gustducin44 cells, stably transfected with pcDNA3.1Zeo-TAS2R44
T1 sequence (P59538 with tags, fused parts or gaps L162M): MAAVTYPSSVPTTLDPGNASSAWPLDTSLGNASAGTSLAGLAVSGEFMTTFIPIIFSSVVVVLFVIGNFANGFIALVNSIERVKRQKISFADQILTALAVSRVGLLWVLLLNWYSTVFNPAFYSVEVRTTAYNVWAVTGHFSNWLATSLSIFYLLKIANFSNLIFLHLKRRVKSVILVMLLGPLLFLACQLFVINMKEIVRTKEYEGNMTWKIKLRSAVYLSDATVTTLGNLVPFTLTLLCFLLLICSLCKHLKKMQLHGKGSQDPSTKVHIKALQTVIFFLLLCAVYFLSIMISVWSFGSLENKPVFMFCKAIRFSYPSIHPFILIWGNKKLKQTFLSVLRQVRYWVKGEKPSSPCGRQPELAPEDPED
Method: A receptor screen with concentration-response analysis was performed and from results inhibitory concentration (IC) IC50 values can be calculated by nonlinear regression using the function f(x)=(a−d)/(1+(x/C)^nh)+d; with a=minimum signal, d=maximum signal, nh=hill coefficient, C=IC50. and x=concentration of antagonist.
IC50 is the molar concentration of an antagonist which produces 50% of the maximum possible inhibitory response for that antagonist.
The full length gene of human TAS2R44 was amplified by polymerase chain reaction (PCR) using gene-specific primers that span the entire coding region as described in WO 2004/029087.
The TAS2R44 cDNA was subcloned into an expression cassette based on either of the following plasmids/expression vectors: pcDNA3.1Zeo (Invitrogen). These vectors contain within their multiple cloning sites the nucleotide sequence coding for the first 45 amino acids of the rat somatostatin receptor subtype 3 (RSS tag) to facilitate cell surface targeting of the transgene (SEQ ID #4) and the nucleotide sequence coding for the herpes simplex virus (HSV) glycoprotein D epitope (HSV epitope in aminoterminal to carboxyterminal direction, HSV tag). (SEQ ID #3) for facilitating immunocytochemical detection.
The TAS2R44 construct contains RSS tag, TAS2R44, and the HSV tag which are fused in frame to allow translation into the receptor protein and the resulting receptor cDNA. This transfected expression vector is called pcDNA3.1Zeo-TAS2R44 (SEQ ID #1) and allows for expression of the TAS2R44 protein (SEQ ID #2).
A cell line that stably expresses the human bitter taste receptor (TAS2R44) was generated by transfecting pcDNA3.1Zeo-TAS2R44 into HEK293T/Gα16-gustducin 44 cells (both formed as described in under 1) above. The host cell line HEK-293T is commercially available from the American […] (catalog #CRL-1573).
Fluo-4 AM (Invitrogen) is a fluorescent indicator of intracellular calcium dynamics (change in concentration) and allows monitoring changes in the calcium concentration, particularly an increase in response to receptor activation occurring after agonist exposure.
At day 0, the HEK293T cell line stably expressing Gα16-gustducin44 and TAS2R44 formed as described under 2) was seeded in antibiotic-free growth medium (standard DMEM with 10% (v/v) heat-inactivated fetal bovine serum, 2 mM L-glutamine […]) into black wall/clear bottom 96-well plates, coated with poly(ethylenimine) (0.005% v/v) at a concentration of 15,000 cells per well and incubated for 48 hours in humidified atmosphere (37° C., 5% CO2).
At the time of the assay, the growth medium was discarded and the cells were further incubated in a humidified atmosphere (37° C., 5% CO2) for 1 hour with 50 μl of loading buffer consisting of 1.5 μM Fluo-4 AM and 2.5 μM probenicid (Sigma-Aldrich) in DMEM.
Afterwards, the 96-well plate was washed 5 times with 200 μl of assay buffer (130 mM NaCl, 5 mM KCl, 10 mM HEPES, 2 mM CaCl2, and 5 mM dextrose, pH 7.4) per well, using an automated plate washer (BioTek). The plate was further incubated for 30 minutes at room temperature in the dark to allow for complete de-esterification of the Fluo-4. Afterwards the plate was washed 5 times with 200 μl of assay buffer per well, and reconstituted with 180 μl of assay buffer per well.
For assay reading, the plate was placed in a Fluorometric Imaging Plate Reader (FLIPR) (FLIPR-TETRA™, Molecular Devices), and receptor activation was initiated by addition of 20 μl of a tenfold concentrated agonist stock solution (to give the desired agonist end concentration when added to the 180 microliter assay buffer volume), which was prepared in assay buffer.
Fluorescence was continuously monitored for 20 seconds to give a signal baseline (averaged to give F0) prior to agonist addition and for 120 seconds after agonist addition. […]

[2] = tested on: panel of bitter sensitive individuals; assay: Sensory evaluation, forced choice test in water with sucralose; assay type: in vivo; conditions: 13 ppm in water with sucralose 1 mM, 3 mM, 7 mM
Method: The bitter blocker (13 ppm) was tested in water with sucralose in concentrations of 1 mM, 3 mM, and 7 mM by a panel of bitter sensitive individuals (15) in two replications per each concentration. The samples were compared to negative controls without bitter blocker and panelists were instructed to choose the less bitter sample in a forced choice test.

[3] = agonist not stated, read-out: IC50 when tested with the TAS2R44 bitter taste receptor

Structure (SMILES)	IC50 [1, 3] [µM]	IC50 ([1]; sucralose (50 mM) as agonist, same range as example 4)	effect on bitterness vs negative control without bitter blocker [2]	panelists that chose the sample with bitter blocker as less bitter ([2]; forced choice, 15 individuals, two replications)
CC1(C(=O)O)CC1CC1CC2CC2(C)C1(C)C (stereo not shown) [1-methyl-2-((1,2,2-trimethylbicyclo[3.1.0]hexan-3-yl)methyl)cyclopropanecarboxylic acid]	0.1 to 20	–	–	–
CC1=CCCC(C)(C)C1CCC(C)C(=O)O (stereo not shown) [2-methyl-4-(2,6,6-trimethylcyclohex-2-enyl)butanoic acid]	0.1 to 20	–	–	–
CC1=CCC(C/C=C/C(=O)O)C1(C)C (stereo not shown) [4-(2,2,3-trimethylcyclopent-3-enyl)but-2-enoic acid]	0.1 to 20	within the same range	significantly reduce bitterness	22/30
CC1CCC(CCCC(=O)O)C1(C)C (stereo not shown) [4-(2,2,3-trimethylcyclopentyl)butanoic acid]	0.1 to 20	–	–	–

Further lines, with some results ahead:

IC50 [1, 3] [µM]	IC50 ([1]; sucralose (50 mM) as agonist, same range as example 4)	Structure (SMILES)	effect on bitterness vs negative control without bitter blocker [2]	panelists that chose the sample with bitter blocker as less bitter ([2]; forced choice, 15 individuals, two replications)
0.1 to 20	–	CC1CCC(CC(=O)O)CC1C (stereo not shown) [2-(3,4-dimethylcyclohexyl)acetic acid]	–	–
0.1 to 20	–	CC1CCCC(C)(C)C1CCC(=O)O (stereo not shown) [3-(2,2,6-trimethylcyclohexyl)propanoic acid]	–	–
0.1 to 20	–	CC1CCCC(C)(C)C1CCCC(=O)O (stereo not shown) [4-(2,2,6-trimethylcyclohexyl)butanoic acid]	–	–
